From ChEMBL document CHEMBL3885861, “Open TG-GATES”

Species: Rattus norvegicus
Experiment: Open TG-GATES - Regimen: Single
Type: toxicity, organism-based, Sprague-Dawley
Design: regimen Single, gender Male, age 6 weeks
Conditions: in vivo, po, 60 mg/kg, route gavage, dose level Low; for APTT / Bas / Eos / Fbg / Hb / Ht / Lym / MCH / MCHC / MCV / Mono / Neu / PT / Plat / RBC / Ret / WBC: tissue Blood; for KIDNEY_L / KIDNEY_R / KIDNEY_TOTAL: tissue Kidney; for LIVER: tissue Liver; for A/G / ALP / ALT / AST / BUN / CRE / Ca / Cl / DBIL / GLC / IP / K / LDH / Na / PL / RALB / TBIL / TC / TG / TP / gamma-GTP: tissue Plasma

Q: For `CCOC(=O)[C@H](CCc1ccccc1)N[C@@H](C)C(=O)N1CCC[C@H]1C(=O)O`, which TERMINAL_BW (3 h) is on record?
A: 218.9 g

Q: And the APTT (3 h)?
A: 15.9 s

Q: What about the Bas (3 h) of the same molecule?
A: 0%

Q: And the Eos (3 h)?
A: 1%

Q: What about the Fbg (3 h) of the same molecule?
A: 216 mg/dL

Q: What about the Hb (3 h) of the same molecule?
A: 13.2 g/dL

Q: What about the Ht (3 h) of the same molecule?
A: 40.3%

Q: And the Lym (3 h)?
A: 75.6%

Q: And the MCH (3 h)?
A: 21.3 pg

Q: What about the MCHC (3 h) of the same molecule?
A: 32.8%

Q: What about the MCV (3 h) of the same molecule?
A: 64.7 fL

Q: What about the Mono (3 h) of the same molecule?
A: 9.4%

Q: And the Neu (3 h)?
A: 14%

Q: And the PT (3 h)?
A: 12 s

Q: And the Plat (3 h)?
A: 113.1 x10_4/uL

Q: What about the RBC (3 h) of the same molecule?
A: 622.2 x10_4/ul

Q: And the Ret (3 h)?
A: 8.4%

Q: What about the WBC (3 h) of the same molecule?
A: 113.3 x10_2/uL

Q: And the KIDNEY_L (3 h)?
A: 0.9 g

Q: What about the KIDNEY_R (3 h) of the same molecule?
A: 0.9 g

Q: What about the KIDNEY_TOTAL (3 h) of the same molecule?
A: 1.9 g

Q: What about the LIVER (3 h) of the same molecule?
A: 10.3 g

Q: And the A/G (3 h)?
A: 1.9

Q: What about the ALP (3 h) of the same molecule?
A: 851.2 IU/L

Q: And the ALT (3 h)?
A: 38.6 IU/L

Q: And the AST (3 h)?
A: 65.6 IU/L

Q: And the BUN (3 h)?
A: 18.2 mg/dL

Q: What about the CRE (3 h) of the same molecule?
A: 0.5 mg/dL

Q: And the Ca (3 h)?
A: 11 mg/dL

Q: What about the Cl (3 h) of the same molecule?
A: 106 meq/L

Q: What about the DBIL (3 h) of the same molecule?
A: 0.018 mg/dL

Q: And the GLC (3 h)?
A: 203.8 mg/dL

Q: What about the IP (3 h) of the same molecule?
A: 9.8 mg/dL

Q: What about the K (3 h) of the same molecule?
A: 5.3 meq/L

Q: And the LDH (3 h)?
A: 85 IU/L

Q: And the Na (3 h)?
A: 138.8 meq/L

Q: And the PL (3 h)?
A: 142.2 mg/dL

Q: And the RALB (3 h)?
A: 3.4 g/dL

Q: And the TBIL (3 h)?
A: 0.3 mg/dL

Q: And the TC (3 h)?
A: 84 mg/dL

Q: And the TG (3 h)?
A: 52.2 mg/dL

Q: And the TP (3 h)?
A: 5.3 g/dL

Q: What about the gamma-GTP (3 h) of the same molecule?
A: 1.8 IU/L

Q: What about the TERMINAL_BW (6 h) of the same molecule?
A: 221.6 g

Q: And the APTT (6 h)?
A: 15.7 s

Q: What about the Bas (6 h) of the same molecule?
A: 0%

Q: What about the Eos (6 h) of the same molecule?
A: 1%

Q: What about the Fbg (6 h) of the same molecule?
A: 200 mg/dL

Q: And the Hb (6 h)?
A: 13.1 g/dL

Q: What about the Ht (6 h) of the same molecule?
A: 39.2%

Q: What about the Lym (6 h) of the same molecule?
A: 79.8%

Q: What about the MCH (6 h) of the same molecule?
A: 21.7 pg

Q: What about the MCHC (6 h) of the same molecule?
A: 33.3%

Q: And the MCV (6 h)?
A: 65.2 fL

Q: What about the Mono (6 h) of the same molecule?
A: 5.2%

Q: And the Neu (6 h)?
A: 14.6%

Q: And the PT (6 h)?
A: 12 s

Q: What about the Plat (6 h) of the same molecule?
A: 110.6 x10_4/uL

Q: What about the RBC (6 h) of the same molecule?
A: 602.6 x10_4/ul

Q: And the Ret (6 h)?
A: 9.2%

Q: What about the WBC (6 h) of the same molecule?
A: 122.1 x10_2/uL

Q: What about the KIDNEY_L (6 h) of the same molecule?
A: 1 g

Q: And the KIDNEY_R (6 h)?
A: 1 g

Q: What about the KIDNEY_TOTAL (6 h) of the same molecule?
A: 2 g

Q: And the LIVER (6 h)?
A: 9.9 g

Q: What about the A/G (6 h) of the same molecule?
A: 2.2

Q: What about the ALP (6 h) of the same molecule?
A: 728.2 IU/L

Q: And the ALT (6 h)?
A: 36.2 IU/L

Q: And the AST (6 h)?
A: 60.4 IU/L

Q: And the BUN (6 h)?
A: 22 mg/dL

Q: And the CRE (6 h)?
A: 0.5 mg/dL

Q: What about the Ca (6 h) of the same molecule?
A: 11.1 mg/dL

Q: What about the Cl (6 h) of the same molecule?
A: 104.8 meq/L

Q: What about the DBIL (6 h) of the same molecule?
A: 0.054 mg/dL

Q: What about the GLC (6 h) of the same molecule?
A: 196 mg/dL

Q: And the IP (6 h)?
A: 10.9 mg/dL

Q: And the K (6 h)?
A: 4.9 meq/L

Q: What about the LDH (6 h) of the same molecule?
A: 85.2 IU/L

Q: What about the Na (6 h) of the same molecule?
A: 139.4 meq/L

Q: What about the PL (6 h) of the same molecule?
A: 136 mg/dL

Q: And the RALB (6 h)?
A: 3.6 g/dL

Q: What about the TBIL (6 h) of the same molecule?
A: 0.5 mg/dL

Q: What about the TC (6 h) of the same molecule?
A: 78.2 mg/dL

Q: And the TG (6 h)?
A: 44.4 mg/dL

Q: What about the TP (6 h) of the same molecule?
A: 5.3 g/dL

Q: And the gamma-GTP (6 h)?
A: 1.4 IU/L

Q: What about the TERMINAL_BW (9 h) of the same molecule?
A: 216 g

Q: What about the APTT (9 h) of the same molecule?
A: 16.1 s

Q: What about the Bas (9 h) of the same molecule?
A: 0%

Q: And the Eos (9 h)?
A: 1.2%

Q: What about the Fbg (9 h) of the same molecule?
A: 195 mg/dL

Q: And the Hb (9 h)?
A: 12.7 g/dL

Q: And the Ht (9 h)?
A: 39.1%

Q: And the Lym (9 h)?
A: 77%

Q: And the MCH (9 h)?
A: 21.6 pg

Q: What about the MCHC (9 h) of the same molecule?
A: 32.6%

Q: And the MCV (9 h)?
A: 66.3 fL

Q: What about the Mono (9 h) of the same molecule?
A: 4.4%

Q: What about the Neu (9 h) of the same molecule?
A: 17%

Q: What about the PT (9 h) of the same molecule?
A: 11.7 s

Q: What about the Plat (9 h) of the same molecule?
A: 111.5 x10_4/uL

Q: And the RBC (9 h)?
A: 590 x10_4/ul

Q: What about the Ret (9 h) of the same molecule?
A: 8.6%

Q: What about the WBC (9 h) of the same molecule?
A: 87.4 x10_2/uL

Q: And the KIDNEY_L (9 h)?
A: 1 g

Q: And the KIDNEY_R (9 h)?
A: 1 g

Q: What about the KIDNEY_TOTAL (9 h) of the same molecule?
A: 2 g

Q: What about the LIVER (9 h) of the same molecule?
A: 9.2 g

Q: And the A/G (9 h)?
A: 1.9

Q: And the ALP (9 h)?
A: 839.6 IU/L

Q: And the ALT (9 h)?
A: 33.2 IU/L

Q: What about the AST (9 h) of the same molecule?
A: 69 IU/L

Q: What about the BUN (9 h) of the same molecule?
A: 20.2 mg/dL

Q: What about the CRE (9 h) of the same molecule?
A: 0.4 mg/dL

Q: And the Ca (9 h)?
A: 10.6 mg/dL

Q: What about the Cl (9 h) of the same molecule?
A: 107 meq/L

Q: And the DBIL (9 h)?
A: 0.02 mg/dL

Q: What about the GLC (9 h) of the same molecule?
A: 193.4 mg/dL

Q: And the IP (9 h)?
A: 11 mg/dL

Q: And the K (9 h)?
A: 5.1 meq/L

Q: What about the LDH (9 h) of the same molecule?
A: 89.4 IU/L

Q: What about the Na (9 h) of the same molecule?
A: 138.4 meq/L

Q: And the PL (9 h)?
A: 122.2 mg/dL

Q: What about the RALB (9 h) of the same molecule?
A: 3.5 g/dL

Q: And the TBIL (9 h)?
A: 0.4 mg/dL

Q: What about the TC (9 h) of the same molecule?
A: 66.8 mg/dL

Q: And the TG (9 h)?
A: 57 mg/dL

Q: And the TP (9 h)?
A: 5.3 g/dL

Q: And the gamma-GTP (9 h)?
A: 1.6 IU/L

Q: What about the TERMINAL_BW (24 h) of the same molecule?
A: 228.5 g

Q: And the APTT (24 h)?
A: 16.3 s

Q: What about the Bas (24 h) of the same molecule?
A: 0%

Q: What about the Eos (24 h) of the same molecule?
A: 1.4%

Q: What about the Fbg (24 h) of the same molecule?
A: 220 mg/dL

Q: What about the Hb (24 h) of the same molecule?
A: 12.9 g/dL

Q: What about the Ht (24 h) of the same molecule?
A: 39.1%

Q: What about the Lym (24 h) of the same molecule?
A: 79.6%

Q: And the MCH (24 h)?
A: 21.5 pg

Q: And the MCHC (24 h)?
A: 33.2%

Q: And the MCV (24 h)?
A: 65 fL

Q: What about the Mono (24 h) of the same molecule?
A: 5.4%

Q: What about the Neu (24 h) of the same molecule?
A: 14%

Q: And the PT (24 h)?
A: 11 s

Q: And the Plat (24 h)?
A: 114.8 x10_4/uL

Q: And the RBC (24 h)?
A: 602.4 x10_4/ul

Q: And the Ret (24 h)?
A: 8.9%

Q: And the WBC (24 h)?
A: 88.3 x10_2/uL

Q: And the KIDNEY_L (24 h)?
A: 1 g

Q: What about the KIDNEY_R (24 h) of the same molecule?
A: 1 g

Q: What about the KIDNEY_TOTAL (24 h) of the same molecule?
A: 2.1 g

Q: What about the LIVER (24 h) of the same molecule?
A: 11.3 g

Q: What about the A/G (24 h) of the same molecule?
A: 2.1

Q: What about the ALP (24 h) of the same molecule?
A: 986.4 IU/L

Q: What about the ALT (24 h) of the same molecule?
A: 39.2 IU/L

Q: And the AST (24 h)?
A: 61.4 IU/L

Q: And the BUN (24 h)?
A: 16.8 mg/dL

Q: And the CRE (24 h)?
A: 0.5 mg/dL

Q: And the Ca (24 h)?
A: 11.1 mg/dL

Q: And the Cl (24 h)?
A: 104.6 meq/L

Q: And the DBIL (24 h)?
A: 0.006 mg/dL

Q: And the GLC (24 h)?
A: 202.4 mg/dL

Q: And the IP (24 h)?
A: 8.6 mg/dL

Q: What about the K (24 h) of the same molecule?
A: 5.4 meq/L

Q: What about the LDH (24 h) of the same molecule?
A: 110.4 IU/L

Q: And the Na (24 h)?
A: 138.6 meq/L

Q: What about the PL (24 h) of the same molecule?
A: 157.2 mg/dL

Q: What about the RALB (24 h) of the same molecule?
A: 3.9 g/dL

Q: And the TBIL (24 h)?
A: 0.4 mg/dL

Q: What about the TC (24 h) of the same molecule?
A: 89.4 mg/dL

Q: What about the TG (24 h) of the same molecule?
A: 94.6 mg/dL

Q: And the TP (24 h)?
A: 5.8 g/dL

Q: What about the gamma-GTP (24 h) of the same molecule?
A: 1.8 IU/L
